Measurements as given in patent US8933106B2, “2-(4-substituted phenylamino) polysubstituted pyridine compounds as inhibitors of non-nucleoside HIV reverse transcriptase, preparation methods and uses thereof” (Institute of Pharmacology and Toxicology Academy of …, priority 2008, dated 2015).
In brackets after ≈: the same amount, converted by molar mass.

How the values were obtained:
HIV-1IIIB virus strain = assay: Anti-HIV activity test (MT-2 cell model), p24 antigen ELISA; assay type: cell-based; details: MT-2 cells; for EC50: Human immunodeficiency virus 1, MT2, HIV-1IIIB, 4th day, p24 antigen; for SI(CC50/EC50): ratio of toxicity CC50 value to activity EC50 value
Description: Please refer to the document (Jiang, S., et al. Antimicrob. Agents Chemother. 2004, 48, 4349-4359). In a 96-pore cell culture plate, 50 μl of different concentrations of compound solutions were respectively mixed with equal-volume of HIV-1IIIB virus strain (100 TCID50), and incubated at 37° C. for 30 min, and then 100 μl MT-2 cell (1×10^5/mL, RPIM 1640 culture medium containing 10% serum) was added, and mixed homogenously, followed by incubation at 37° C. overnight. On the second day, 150 μl of the supernatant was sucked out, and equal-volume of fresh culture medium was replenished, followed by further incubation at 37° C. for 3 days. On the 4th day, cytopathic effect (CPE) was recorded. Thereafter, 100 μl of culture supernatant was sucked out, virus particles were split using 5% Triton X-100, and p24 antigen therein was tested by using ELISA assay. Briefly, a ELISA plate was coated with HIVIG (2 μg/mL), and blocked with 1% fat-free milk, then a virus lysate was added therein, followed by incubation at 37° C. for 60 min. After fully washing the plate, anti-p24 monoclonal antibody-183-12H-5C, biotin-labeled goat antimouse antibody and […]-labeled horseradish peroxidase were added in sequence. Then, after developing with TMB, OD was tested at 450 nm. The 50% effective concentration (EC50) of the compound was calculated using CalcuSyn software.

[1] = Cytotoxicity test of the compound (MT-2 cells, XTT); assay type: cell-based; details: human, 4th day
Description: Please refer to the document (Jiang, S., et al. Antimicrob. Agents Chemother. 2004, 48, 4349-4359). In a 96-pore cell culture plate, 50 μl of different concentrations of compound solutions were respectively mixed with equal-volume of PBS, and incubated at 37° C. for 30 min, and then 100 μl MT-2 (or H9) cells (1×10^5/mL, RPIM 1640 culture medium containing 10% serum) was added, and mixed homogenously, followed by incubation at 37° C. overnight. On the second day, 150 μl of the supernatant was sucked out, and equal-volume of fresh culture medium was replenished, followed by further incubation at 37° C. for 3 days. On the 4th day, 50 μl of a XTT solution (1 mg/mL) containing PMS as freshly prepared was added. After 4 h, OD at 450 nm was tested. The 50% cytotoxicity concentration (CC50) of the compound was calculated using CalcuSyn software.

Row | SMILES | melting point | EC50 (HIV-1IIIB virus strain) | SI(CC50/EC50) (HIV-1IIIB virus strain) | CC50 at 4 days [1]
1 | Cc1cc(C=CC#N)cc(C)c1Oc1ccc([N+](=O)[O-])c(Nc2ccc(C#N)cc2)n1 [Compound I-5, 2-(4-cyanophenylamino)-6-(2,6-dimethyl-4-cyanovinylphenoxy)-3-nitropyridine] | – | 0.005 mg/L (≈ 0.0122 µM) | 4,956 | 24.8 mg/L (≈ 60.2 µM)
2 | Cc1cc(C#N)cc(C)c1Oc1ccc(N)c(Nc2ccc(C#N)cc2)n1 [Compound I-6, 3-amino-2-(4-cyanophenylamino)-6-(2,6-dimethyl-4-cyanophenoxy)pyridine] | – | 0.0005 mg/L (≈ 0.00141 µM) | 22,560 | 11.3 mg/L (≈ 31.7 µM)
3 | C=CCc1cc(C)c(Oc2ccc([N+](=O)[O-])c(Nc3ccc(C#N)cc3)n2)c(C)c1 [Compound I-9, 2-(4-cyanophenylamino)-6-(2,6-dimethyl-4-allylphenoxy)-3-nitropyridine] | – | 0.109 mg/L (≈ 0.272 µM) | >917 | > 100 mg/L
4 | Cc1cc(C=CC#N)cc(C)c1Oc1ccc(N)c(Nc2ccc(C#N)cc2)n1 [Compound I-10, 3-amino-2-(4-cyanophenylamino)-6-(2,6-dimethyl-4-cyanovinylphenoxy)pyridine] | – | 0.0042 mg/L (≈ 0.011 µM) | 6,656 | 27.9 mg/L (≈ 73.3 µM)
5 | Cc1cc(Br)cc(C)c1Oc1ccc(N)c(Nc2ccc(C#N)cc2)n1 [Compound I-12, 3-amino-2-(4-cyanophenylamino)-6-(2,6-dimethyl-4-bromophenoxy)pyridine] | 190 to 193 °C | 0.021 mg/L (≈ 0.0513 µM) | 259 | 5.44 mg/L (≈ 13.3 µM)
6 | C=CCc1cc(C)c(Oc2ccc(N)c(Nc3ccc(C#N)cc3)n2)c(C)c1 [Compound I-13, 3-amino-2-(4-cyanophenylamino)-6-(2,6-dimethyl-4-allylphenoxy)pyridine] | 150 to 152 °C | 0.09 mg/L (≈ 0.243 µM) | 24 | 2.13 mg/L (≈ 5.75 µM)
7 | Cc1cc(C(O)C[N+](=O)[O-])cc(C)c1Oc1ccc([N+](=O)[O-])c(Nc2ccc(C#N)cc2)n1 (stereo not shown) [Compound I-14, 2-(4-cyanophenylamino)-6-(2,6-dimethyl-4-(1-hydroxy-2-nitroethyl)phenoxy)-3-nitropyridine] | 230 to 234 °C | 0.77 mg/L (≈ 1.71 µM) | 16 | 12.2 mg/L (≈ 27 µM)
8 | Cc1cc(CNC2CC2)cc(C)c1Oc1ccc([N+](=O)[O-])c(Nc2ccc(C#N)cc2)n1 [Compound I-15, 2-(4-cyanophenylamino)-6-(2,6-dimethyl-4-(2-cyclopropylaminomethyl)phenoxy)-3-nitropyridine] | 175 to 177 °C | – | – | –
9 | Cc1cc(C#CC2CC2)cc(C)c1Oc1ccc(N)c(Nc2ccc(C#N)cc2)n1 [Compound I-21, 3-amino-2-(4-cyanophenylamino)-6-(2,6-dimethyl-4-(cyclopropylethynyl)phenoxy)pyridine] | 82 to 85 °C | – | – | –
10 | Cc1cc(N)cc(C)c1Oc1ccc(N)c(Nc2ccc(C#N)cc2)n1 [Compound I-24, 3-amino-2-(4-cyanophenylamino)-6-(2,6-dimethyl-4-aminophenoxy)pyridine] | 195 to 198 °C | – | – | –
11 | Cc1cc(I)cc(C)c1Oc1ccc(N)c(Nc2ccc(C#N)cc2)n1 [Compound I-25, 3-amino-2-(4-cyanophenylamino)-6-(2,6-dimethyl-4-iodophenoxy)pyridine] | – | 0.036 mg/L (≈ 0.0789 µM) | 298 | 10.7 mg/L (≈ 23.5 µM)
12 | N#Cc1ccc(Nc2nc(Oc3c(Br)cc(Br)cc3Br)ccc2[N+](=O)[O-])cc1 [Compound I-26, 2-(4-cyanophenylamino)-6-(2,4,6-tribromophenoxy)-3-nitropyridine] | 188 to 191 °C | 0.179 mg/L (≈ 0.315 µM) | 151 | 27 mg/L (≈ 47.4 µM)
13 | N#Cc1ccc(Nc2nc(Oc3c(Br)cc(C=O)cc3Br)ccc2[N+](=O)[O-])cc1 [Compound I-27, 2-(4-cyanophenylamino)-6-(2,6-dibromo-4-formylphenoxy)-3-nitropyridine] | 218 to 220 °C | 0.152 mg/L (≈ 0.293 µM) | – | 0.78 mg/L (≈ 1.51 µM)
14 | N#Cc1ccc(Nc2nc(Oc3c(Br)cc(CO)cc3Br)ccc2[N+](=O)[O-])cc1 [Compound I-28, 2-(4-cyanophenylamino)-6-(2,6-dibromo-4-hydroxymethylphenoxy)-3-nitropyridine] | 209 to 213 °C | 0.253 mg/L (≈ 0.486 µM) | 145 | 36.3 mg/L (≈ 69.8 µM)
15 | N#Cc1ccc(Nc2nc(Oc3c(F)cccc3F)ccc2[N+](=O)[O-])cc1 [Compound I-29, 2-(4-cyanophenylamino)-6-(2,6-difluorophenoxy)-3-nitropyridine] | 234 to 236 °C | 15.9 mg/L (≈ 43.2 µM) | 2 | 39.7 mg/L (≈ 108 µM)
16 | N#CC=Cc1cc(Br)c(Oc2ccc([N+](=O)[O-])c(Nc3ccc(C#N)cc3)n2)c(Br)c1 [Compound I-30, 2-(4-cyanophenylamino)-6-(2,6-dibromo-4-cyanovinylphenoxy)-3-nitropyridine] | 223 to 226 °C | 0.045 mg/L (≈ 0.0832 µM) | 551 | 24.8 mg/L (≈ 45.8 µM)

Further lines, with some results ahead:

Row | melting point | EC50 (HIV-1IIIB virus strain) | SMILES | SI(CC50/EC50) (HIV-1IIIB virus strain) | CC50 at 4 days [1]
17 | 250 to 252 °C | – | Cc1cc([N+](=O)[O-])cc(C)c1Oc1ccc([N+](=O)[O-])c(Nc2ccc(C#N)cc2)n1 | – | –
18 | – | 0.118 mg/L (≈ 0.315 µM) | Cc1cc(C)c(Oc2ccc([N+](=O)[O-])c(Nc3ccc(C#N)cc3)n2)c(C)c1 [Compound I-3, 2-(4-cyanophenylamino)-6-(2,4,6-trimethylphenoxy)-3-nitropyridine] | 4,264 | 503 mg/L (≈ 1340 µM)
19 | – | 0.075 mg/L (≈ 0.192 µM) | Cc1cc(CO)cc(C)c1Oc1ccc([N+](=O)[O-])c(Nc2ccc(C#N)cc2)n1 [Compound I-8, 2-(4-cyanophenylamino)-6-(2,6-dimethyl-4-hydroxymethylphenoxy)-3-nitropyridine] | 602 | 45.2 mg/L (≈ 116 µM)
20 | 162 to 165 °C | 1.18 mg/L (≈ 2.43 µM) | Cc1cc(I)cc(C)c1Oc1ccc([N+](=O)[O-])c(Nc2ccc(C#N)cc2)n1 [Compound I-16, 2-(4-cyanophenylamino)-6-(2,6-dimethyl-4-iodophenoxy)-3-nitropyridine] | 61 | 72.2 mg/L (≈ 148 µM)
21 | 114 to 116 °C | – | Cc1cc(C#CC(C)(C)O)cc(C)c1Oc1ccc([N+](=O)[O-])c(Nc2ccc(C#N)cc2)n1 [Compound I-18, 2-(4-cyanophenylamino)-6-(2,6-dimethyl-4-(3-methyl-3-hydroxy-1-butynyl)phenoxy)-3-nitropyridine] | – | –
22 | 188 to 192 °C | – | Cc1cc(C#CC2CC2)cc(C)c1Oc1ccc([N+](=O)[O-])c(Nc2ccc(C#N)cc2)n1 [Compound I-20, 2-(4-cyanophenylamino)-6-(2,6-dimethyl-4-(cyclopropylethynyl)phenoxy)-3-nitropyridine] | – | –
23 | 186 to 188 °C | 0.26 mg/L (≈ 0.676 µM) | C#Cc1cc(C)c(Oc2ccc([N+](=O)[O-])c(Nc3ccc(C#N)cc3)n2)c(C)c1 [Compound I-22, 2-(4-cyanophenylamino)-6-(2,6-dimethyl-4-ethynylphenoxy)-3-nitropyridine] | 256 | 66.7 mg/L (≈ 173 µM)
24 | 79 to 82 °C | 0.15 mg/L (≈ 0.423 µM) | C#Cc1cc(C)c(Oc2ccc(N)c(Nc3ccc(C#N)cc3)n2)c(C)c1 [Compound I-23, 3-amino-2-(4-cyanophenylamino)-6-(2,6-dimethyl-4-ethynylphenoxy)pyridine] | 19 | 2.92 mg/L (≈ 8.24 µM)
